# Laboratory results as given in ChEMBL document CHEMBL3593175, “Bicyclic [3.3.0]-Octahydrocyclopenta[c]pyrrolo Antagonists of Retinol Binding Protein 4: Potential Treatment of Atrophic Age-Related Macular Degeneration and Stargardt Disease” (J Med Chem, 2015).
# How the values were obtained:
# [1] = target: T1, Retinol-binding protein 4 (Homo sapiens, UniProt P02753); assay: Displacement of [3H]-retinol from RBP4 (unknown origin) by scintillation proximity assay
# [2] = target: T1, Retinol-binding protein 4; assay: Inhibition of retinol-induced interaction of bacterially expressed MBP-tagged RBP4 (unknown origin) with Eu3+ cryptate labeled TTR by HTRF assay
# [3] = Metabolic stability in human liver microsomes assessed as compound remaining at 10 uM after 30 mins; format: ADME; conditions: read-out: Stability
# [4] = Metabolic stability in rat liver microsomes assessed as compound remaining at 10 uM after 30 mins; format: ADME; conditions: read-out: Stability
Compound,IC50 [1] [nM],IC50 [2] [nM],"remaining at 0.5 h, 10 µM [3] [%]","remaining at 0.5 h, 10 µM [4] [%]"
Cc1cc(C(=O)O)nc(N2C[C@H]3C[C@@H](c4cc(F)ccc4C(F)(F)F)C[C@H]3C2)n1,46.3,33.4,–,–
O=C(O)c1cncc(N2C[C@H]3C[C@@H](c4ccccc4C(F)(F)F)C[C@H]3C2)n1,166,–,–,–
Cc1cc(C(=O)O)nc(N2CCN(c3ccccc3C(F)(F)F)CC2)n1,89.5,511,18,63
Cc1cc(C(=O)O)nc(N2C[C@H]3C[C@@H](c4cnccc4C(F)(F)F)C[C@H]3C2)n1,51.8,821,–,–
O=C(O)c1cccc(N2C[C@H]3C[C@@H](c4ccccc4C(F)(F)F)C[C@H]3C2)c1,83.2,3960,–,–
Cc1cc(C(=O)O)nc(N2C[C@H]3C[C@@H](c4cc(F)ccc4Cl)C[C@H]3C2)n1,532,347,–,–
Cc1ccc(C(=O)O)c(N2C[C@H]3C[C@@H](c4ccccc4C(F)(F)F)C[C@H]3C2)n1,68.4,2000,–,–
